In PMC11937972 (JACS Au, 2025) one finds IC50 and Km data, which are given here for 4 molecules.

Where two headings read alike, the source gives them in different places.

The target in data set [1] is T1, URAT1^EM (humanized rat URAT1, rURAT1-3M) (Rattus norvegicus, UniProt Q3ZAV1, M481I/N35S/Y365F).
T1 sequence (Q3ZAV1 1-553 N35S/Y365F/M481I): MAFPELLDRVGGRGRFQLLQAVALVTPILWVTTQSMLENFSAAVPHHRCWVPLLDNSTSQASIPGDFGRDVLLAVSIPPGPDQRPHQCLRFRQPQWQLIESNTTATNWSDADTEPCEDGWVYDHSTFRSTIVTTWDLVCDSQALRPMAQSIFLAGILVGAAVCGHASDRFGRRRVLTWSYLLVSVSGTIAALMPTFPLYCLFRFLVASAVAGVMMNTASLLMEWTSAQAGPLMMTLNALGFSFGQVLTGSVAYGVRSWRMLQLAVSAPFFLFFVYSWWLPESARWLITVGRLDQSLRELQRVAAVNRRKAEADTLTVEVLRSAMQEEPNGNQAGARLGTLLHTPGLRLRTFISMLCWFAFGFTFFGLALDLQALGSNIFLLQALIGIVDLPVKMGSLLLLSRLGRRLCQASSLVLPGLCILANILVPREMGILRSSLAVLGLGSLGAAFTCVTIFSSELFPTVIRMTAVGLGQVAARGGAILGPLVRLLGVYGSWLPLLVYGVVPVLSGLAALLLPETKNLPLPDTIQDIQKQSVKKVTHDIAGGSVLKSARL
Kind of data set: cell-based.

Data set [2] addresses T2, human URAT1 (hURAT1) (Homo sapiens, UniProt Q96S37).
T2 sequence (Q96S37 1-553): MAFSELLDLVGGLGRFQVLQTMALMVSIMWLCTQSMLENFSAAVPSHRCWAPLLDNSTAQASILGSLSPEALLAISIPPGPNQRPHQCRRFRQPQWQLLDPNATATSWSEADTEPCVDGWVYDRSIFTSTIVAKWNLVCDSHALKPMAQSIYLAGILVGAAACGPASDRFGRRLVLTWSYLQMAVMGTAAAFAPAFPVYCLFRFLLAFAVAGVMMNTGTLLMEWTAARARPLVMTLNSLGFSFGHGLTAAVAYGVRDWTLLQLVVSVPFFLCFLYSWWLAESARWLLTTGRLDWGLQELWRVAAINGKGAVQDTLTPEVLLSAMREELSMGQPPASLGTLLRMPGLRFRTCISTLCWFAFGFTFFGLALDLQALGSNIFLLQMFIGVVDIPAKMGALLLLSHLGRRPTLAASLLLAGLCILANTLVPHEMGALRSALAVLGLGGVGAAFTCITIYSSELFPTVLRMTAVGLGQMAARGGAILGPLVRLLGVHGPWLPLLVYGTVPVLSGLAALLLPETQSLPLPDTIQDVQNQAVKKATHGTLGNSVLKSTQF
Kind of data set: inhibition of urate uptake in transfected HEK293T cells. The class given is cell-based.

Data set [3] concerns the target T1, URAT1^EM (humanized rat URAT1, rURAT1-3M). Kind of data set: cryo-EM structure at […] Å. The class given is cell-based.
Substrate in data set [4]: O=c1[nH]c(=O)c2[nH]c(=O)[nH]c2[nH]1
Kind of data set: concentration-dependent urate uptake in HEK293T cells, Km. The class given is cell-based, Rattus norvegicus.

Substrate in data set [5]: O=c1[nH]c(=O)c2[nH]c(=O)[nH]c2[nH]1
The data set is described as above. Type of data set: cell-based, Homo sapiens.

As to `CCc1oc2ccccc2c1C(=O)c1cc(Br)c(O)c(Br)c1` [BEN, benzbromarone], the IC50 in data set [1] turned out to be 425 nM. That is a sub-micromolar value. On to `CC(C)(Sc1ccncc1-c1ccc(C#N)c2ccccc12)C(=O)O` [VER, verinurad], for which the 50% inhibitory concentration (IC50) entry is “Inhibition of human URAT1 WT and variants by verinurad” in data set [2]; 150 nM in data set [3].

B1: URAT1^EM (humanized rat URAT1, rURAT1-3M) (Rattus norvegicus; M481I/N35S/Y365F) (protein)
chain: T1 sequence (Q3ZAV1 1-553 N35S/Y365F/M481I)
As for B1, the Michaelis constant (Km) in data set [4] amounted to 203 µM.

B2: human URAT1 (hURAT1) (Homo sapiens) (protein)
chain: T2 sequence (Q96S37 1-553)
For the molecule B2, the Michaelis constant (Km) in data set [5] amounted to 80 µM.
